Some test systems named below: ACHN renal; OVCAR-4 ovarian; SK-MEL-28 melanoma; HOP-62 NSCLC; SN12C renal; RXF 393 renal; EKVX NSCLC; SK-OV-3 ovarian; K-562 leukemia; SF-295 CNS.
Common to all, as to assay: DTP human tumour cell line panel, 48 h

In PubChem BioAssay (NCI) one finds GI50 and TGI data, which are given here for 13 compounds.

Where “and” joins values, the source holds several entries; their conditions need not be identical. Equal values may be shown once.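 The compound was tested at five concentrations on cells cultured in 96-well plates, with a 48-hour exposure period. GI50: concentration for 50% inhibition of growth. The concentration for full growth arrest is given as TGI.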

As for `COc1cccc2c1C(=O)c1c(O)c3c(c(O)c1C2=O)CC(O)(/C(C)=N/NC(=O)CCC(=O)N/N=C(\C)C1(O)Cc2c(O)c4c(c(O)c2C(OC2CC(N)C(O)C(C)O2)C1)C(=O)c1c(OC)cccc1C4=O)CC3OC1CC(N)C(O)C(C)O1` (stereo not given), the GI50 – broadly, the concentration giving 50% growth inhibition – with ACHN renal was 0.277 µM; in the assay on OVCAR-4 ovarian it was 0.885 µM; in the assay on SK-MEL-28 melanoma, 0.371 µM; in the assay with HOP-62 NSCLC it was 0.19 µM; in the assay on SN12C renal, 0.234 µM; in the assay on RXF 393 renal, 0.376 µM. Besides, the GI50 with EKVX NSCLC is 1.12 µM; with SK-OV-3 ovarian, 0.475 µM; with K-562 leukemia, 0.341 µM; in the assay with SF-295 CNS, 0.42 µM. Moreover, the TGI – broadly, the concentration giving total growth inhibition – in the assay with ACHN renal is 2.9 µM; with OVCAR-4 ovarian, greater than 21.4 µM; in the assay with SK-MEL-28 melanoma, 1.35 µM; in the assay with HOP-62 NSCLC, 1.57 µM; with SN12C renal, greater than 50 µM; with RXF 393 renal it was 1.35 µM. Also, the TGI came to 22.1 µM in the assay with EKVX NSCLC, 2.4 µM in the assay with SK-OV-3 ovarian, 7.69 µM in the assay with K-562 leukemia and 6.51 µM in the assay on SF-295 CNS.
For the compound `Cc1ccc(Cn2c(C)nc3c2C(=O)c2ccccc2C3=O)cc1`, the TGI was 38.9 µM with ACHN renal; 63.4 µM in the assay with OVCAR-4 ovarian; greater than 100 µM with SK-MEL-28 melanoma; 42.1 µM in the assay on HOP-62 NSCLC; greater than 100 µM with SN12C renal; 28.7 µM in the assay with RXF 393 renal. For the same compound, the TGI in the assay with EKVX NSCLC was greater than 100 µM; with SK-OV-3 ovarian it was 45.6 µM; in the assay with K-562 leukemia it was greater than 100 µM; in the assay on SF-295 CNS it was 42.9 µM.
Take `COC1C(O)=C2C(=O)O/C(C)=C/C=C/C=C/C=C\CC(c3ccccc3)NC(=O)\C=C/C=C\C=C\C=C\[C@@]2(C)[C@@H]1O` (stereo not given in full): the TGI with ACHN renal is 0.122 µM; with OVCAR-4 ovarian, 1.85 µM; in the assay with SK-MEL-28 melanoma, 0.0518 µM; in the assay with HOP-62 NSCLC it was 0.146 µM; with SN12C renal, 0.538 µM; in the assay with RXF 393 renal, 0.0962 µM. For the same compound, the TGI in the assay on EKVX NSCLC stood at 0.279 µM; in the assay with SK-OV-3 ovarian it was 0.188 µM; with K-562 leukemia, 0.158 µM; in the assay on SF-295 CNS, 0.0238 µM.
For `O=C(O)CSc1n[nH]c(-c2ccccc2)n1`, the concentration for total growth inhibition (TGI) with ACHN renal, with OVCAR-4 ovarian, with SK-MEL-28 melanoma, with HOP-62 NSCLC, with SN12C renal and in the assay with RXF 393 renal was greater than 100 µM each time. The TGI in the assay with EKVX NSCLC, in the assay with SK-OV-3 ovarian, in the assay on K-562 leukemia and in the assay with SF-295 CNS was greater than 100 µM throughout.
As to `CCOc1ccc(N2C(=O)/C(=C/c3ccc(N(CCC#N)CCC#N)cc3)N=C2c2cc([N+](=O)[O-])ccc2Cl)cc1`, the TGI in the assay with ACHN renal was greater than 100 µM; in the assay with OVCAR-4 ovarian, greater than 100 µM; in the assay with SK-MEL-28 melanoma it was 41.8 µM; in the assay with HOP-62 NSCLC, greater than 100 µM; with SN12C renal it was greater than 100 µM; in the assay with RXF 393 renal it was greater than 100 µM. Further, the TGI with EKVX NSCLC is greater than 100 µM; in the assay with SK-OV-3 ovarian, greater than 100 µM; in the assay on K-562 leukemia, 81.2 µM; with SF-295 CNS, 83.7 µM.
For the compound `CC(=O)O[C@H]1CCC2[C@@H]3CCC4=C(O)c5nocc5C[C@]4(C)C3CC[C@@]21C` (stereo not given in full), the TGI in the assay on ACHN renal, with OVCAR-4 ovarian, in the assay on SK-MEL-28 melanoma, in the assay with HOP-62 NSCLC, in the assay on SN12C renal and with RXF 393 renal was greater than 100 µM in each case. Besides, the TGI in the assay on EKVX NSCLC, in the assay on SK-OV-3 ovarian, in the assay on K-562 leukemia and with SF-295 CNS was greater than 100 µM in each case.
Take `O=C(CC(O)(C(F)(F)F)C(F)(F)F)c1cc(CC(=O)C(O)(C(F)(F)F)C(F)(F)F)cc(CC(=O)C(O)(C(F)(F)F)C(F)(F)F)c1`: the TGI was greater than 6.02 µM with ACHN renal; greater than 10 µM in the assay on OVCAR-4 ovarian; greater than 5.88 µM in the assay on SK-MEL-28 melanoma; 3.29 µM in the assay with HOP-62 NSCLC; 6.71 µM in the assay with SN12C renal; 4.43 µM in the assay with RXF 393 renal. The TGI with EKVX NSCLC was greater than 9.06 µM; with SK-OV-3 ovarian, 9.55 µM; in the assay with K-562 leukemia, greater than 10 µM; in the assay with SF-295 CNS, 4.47 µM.
As to `N=c1ccn2c(n1)OC1C(O)C(CO)OC12` (stereo not given), the GI50 in the assay on ACHN renal was 0.237 µM; in the assay on OVCAR-4 ovarian, greater than 100 µM; in the assay on SK-MEL-28 melanoma, 6.3 µM and > 36.5 µM; in the assay on HOP-62 NSCLC, 0.326 µM; in the assay on SN12C renal it was 3.13 µM; in the assay on RXF 393 renal it was greater than 25.1 µM. In addition, the GI50 in the assay on EKVX NSCLC was greater than 100 µM; with SK-OV-3 ovarian it was 5.43 µM; in the assay on K-562 leukemia, 81.4 µM; with SF-295 CNS, 5.93 µM. The TGI in the assay on ACHN renal was 14 µM and 3.49 µM; in the assay on OVCAR-4 ovarian it was greater than 1000 µM; with SK-MEL-28 melanoma, greater than 607 µM; with HOP-62 NSCLC, 130 µM; in the assay with SN12C renal it was greater than 621 µM; in the assay with RXF 393 renal, greater than 1000 µM. In addition, the TGI is greater than 1000 µM in the assay on EKVX NSCLC; greater than 696 µM in the assay with SK-OV-3 ovarian; greater than 1000 µM in the assay with K-562 leukemia; 359 µM and > 100 µM in the assay on SF-295 CNS.
With `O=C(NCCCCN=c1cccccc1NCCCCNC(=O)OCc1ccccc1)OCc1ccccc1`, the total growth inhibition concentration (TGI) amounted to 59.5 µM in the assay on ACHN renal; 57.5 µM in the assay with OVCAR-4 ovarian; 39.6 µM with SK-MEL-28 melanoma; 39 µM in the assay with HOP-62 NSCLC; 51.6 µM in the assay on SN12C renal; 40.4 µM with RXF 393 renal. Also, the TGI with EKVX NSCLC is 81.4 µM; in the assay with SK-OV-3 ovarian, 45.5 µM; with K-562 leukemia, 33.4 µM; in the assay with SF-295 CNS, 26.9 µM.
As to `Cc1ccc(S(=O)(=O)N/N=C/c2oc(-c3ccncc3)c(-c3ccncc3)c2[N+](=O)[O-])cc1`, the TGI in the assay with ACHN renal, in the assay on OVCAR-4 ovarian, in the assay with SK-MEL-28 melanoma, in the assay on HOP-62 NSCLC, in the assay on SN12C renal and in the assay with RXF 393 renal was greater than 100 µM each time. The TGI in the assay with EKVX NSCLC, in the assay with SK-OV-3 ovarian, in the assay with K-562 leukemia and in the assay with SF-295 CNS was greater than 100 µM in each case.
For the compound `Ic1ccc(-n2nnnc2-c2cnoc2-c2ccccc2)cc1`, the GI50 in the assay on ACHN renal was greater than 61.1 µM; with OVCAR-4 ovarian it was greater than 64.2 µM; in the assay on SK-MEL-28 melanoma it was greater than 62.2 µM; with HOP-62 NSCLC, 53.3 µM; with SN12C renal, 48.9 µM; in the assay on RXF 393 renal, 43.1 µM. For the same compound, the GI50 in the assay on EKVX NSCLC is 7.49 µM; in the assay on SK-OV-3 ovarian, greater than 65.4 µM; in the assay on K-562 leukemia, 29.2 µM; in the assay with SF-295 CNS, 38.2 µM. In addition, the TGI in the assay with ACHN renal was greater than 100 µM; with OVCAR-4 ovarian it was greater than 100 µM; with SK-MEL-28 melanoma, greater than 100 µM; in the assay on HOP-62 NSCLC, greater than 100 µM; in the assay on SN12C renal, greater than 88.3 µM; in the assay with RXF 393 renal, greater than 100 µM. Moreover, the TGI with EKVX NSCLC was greater than 21.7 µM; in the assay with SK-OV-3 ovarian it was greater than 100 µM; in the assay on K-562 leukemia it was greater than 66.6 µM; in the assay with SF-295 CNS, greater than 77.8 µM.
In the case of `CCOC(=O)NC(=O)c1cn(CCOC(=O)NCCCCCCNC(=O)OCCn2cc(C(=O)NC(=O)OCC)c(=O)[nH]c2=O)c(=O)[nH]c1=O`, the TGI in the assay with ACHN renal, in the assay on OVCAR-4 ovarian, in the assay with SK-MEL-28 melanoma, in the assay with HOP-62 NSCLC, in the assay on SN12C renal and in the assay on RXF 393 renal was greater than 100 µM throughout. The TGI with EKVX NSCLC, with SK-OV-3 ovarian, with K-562 leukemia and with SF-295 CNS was greater than 100 µM throughout.
In the case of `O=[N+]([O-])c1ccc(-n2nnc(C3=NCCN3)c2-c2ccc(Cl)cc2)cc1`, the TGI in the assay on ACHN renal, with OVCAR-4 ovarian, in the assay with SK-MEL-28 melanoma, in the assay on HOP-62 NSCLC, in the assay with SN12C renal and in the assay on RXF 393 renal was greater than 100 µM each time. In addition, the TGI in the assay with EKVX NSCLC, with SK-OV-3 ovarian, in the assay with K-562 leukemia and in the assay on SF-295 CNS was greater than 100 µM throughout.
